Each structure is given as a SMILES string.

This assay relates to Human Umbilical Vein Endothelial cells. Kind of assay: HUVEC proliferation assay (VEGF-stimulated). As to conditions: 72 h, CyQuant, read-out: inhibition of VEGF-stimulated HUVEC proliferation. Type of assay: cell-based. The protocol: Human Umbilical Vein Endothelial cells are purchased from Clonetics, Inc., as cryopreserved cells harvested from a pool of donors. These cells, at passage 1, are thawed and expanded in EBM-2 complete medium, until passage 2 or 3. The cells are trypsinized, washed in DMEM+10% FBS+antibiotics, and spun at 1000 rpm for 10 min. Prior to centrifugation of the cells, a small amount is collected for a cell count. After centrifugation, the medium is discarded, and the cells are resuspended in the appropriate volume of DMEM+10% FBS+antibiotics to achieve a concentration of 3×10^5 cells/mL. Another cell count is performed to confirm the cell concentration. The cells are diluted to 3×10^4 cells/mL in DMEM+10% FBS+antibiotics, and 100 μL of cells are added to a 96-well plate. The cells are incubated at 37° C. for 22 h.
Prior to the completion of the incubation period, compound dilutions are prepared. Five-point, five-fold serial dilutions are prepared in DMSO, at concentrations 400-fold greater than the final concentrations desired. 2.5 μL of each compound dilution are diluted further in a total of 1 mL DMEM+10% FBS+antibiotics (400× dilution). Medium containing 0.25% DMSO is also prepared for the 0 μM compound sample. At the 22 h timepoint, the medium is removed from the cells, and 100 μL of each compound dilution is added. The cells are incubated at 37° C. for 2-3 h.
During the compound pre-incubation period, the growth factors are diluted to the appropriate concentrations. Solutions of DMEM+10% FBS+antibiotics, containing either VEGF or bFGF at the following concentrations: 50, 10, 2, 0.4, 0.08, and 0 ng/mL are prepared. […]
At the completion of the 72 h incubation period, the medium is removed, and the cells are washed twice with PBS. […] The cells are thawed and analyzed using the CyQuant fluorescent dye (Molecular Probes C-7026), following the manufacturer's recommendations. The plates are read on a Victor/Wallac 1420 workstation at 485 nm/530 nm (excitation/emission). Raw data are collected and analyzed using a 4-parameter fit equation in XLFit. IC50 values are then determined.
As to `CC(C)(C)c1ccc(-n2ncc3cccc(NCc4c[nH]c5ncccc45)c3c2=O)cc1` [Example 2, 2-(4-(1,1-Dimethylethyl)phenyl)-8-((1H-pyrrolo[2,3-b]pyridin-3-ylmethyl)amino)-1(2H)-phthalazinone], the IC50 was less than 500 nM.

Regarding `CC(C)(C)c1ccc(-n2ncc3cccc(NCc4ccncc4)c3c2=O)cc1` [Example 1, 2-(4-(1,1-Dimethylethyl)phenyl)-8-((4-pyridinylmethyl)amino)-1(2H)-phthalazinone], the IC50 is less than 500 nM.

In the case of `CC(C)(C)c1ccc(N2CCc3cccc(NCc4ccncc4)c3C2=O)cc1` [Example 3, 2-(4-(1,1-Dimethylethyl)phenyl)-8-((4-pyridinylmethyl)amino)-3,4-dihydro-1(2H)-isoquinolinone], the IC50 is less than 500 nM.

The values above are taken from patent US7390820B2, “Substituted quinolinone derivatives and methods of use” (Amgen Inc., priority 2003, dated 2008).
